# Laboratory results from US12281079B2, “Quinoline derivatives, processes for their preparation and uses thereof for the treatment of cancer” (Lead Discovery Center GmbH, priority 2019, dated 2025).
# Biological target: mitochondrial RNA polymerase (POLRMT) (Mus musculus, UniProt Q8BKF1)
# Assay: Homogeneous TR-FRET assay for mitochondrial transcription activity
# Format: biochemical
# Conditions: homogeneous TR-FRET assay according to Example 4
# Description: The TR-FRET assay was basically conducted as described in WO2016/193231A1, especially as described in example 1 (hereby incorporated by reference). With respect to the back ground of the mitochondrial transcription it is referred to Falkenberg et al. (2002) and Posse et al. (Posse et al., 2015). The method monitors the activity of mitochondrial RNA-polymerase via detection of the formation of its product, a 407 bp long RNA sequence. Detection of the product is facilitated by hybridization of two DNA-oligonucleotide probes to specific and adjacent sequences within the RNA product sequence. Upon annealing of the probes, two fluorophores that are coupled directly to an acceptor nucleotide probe (ATT0647, 5′) or introduced via a coupled streptavidin interacting with a biotinylated donor nucleotide probe on the other side (Europium cryptate, 3′) are brought into sufficient proximity to serve as a fluorescence-donor-acceptor pair as generally described in Walters and Namchuk (2003). Thus, a FRET signal at 665 nm is generated upon excitation at 340 nm.
# Briefly, the protocol described here was applied for screening and activity determination in a low-volume 384-well microtiter plate with non-binding surface. For high-throughput application in the 1536-well microtiter plate format, volumes of the reagent mixes were adjusted, maintaining the volumetric ratio. Proteins POLRMT (NM_172551.3), TFAM (NM_009360.4) and TFB2M (NM_008249.4) were diluted from their stocks to working concentrations of 150 nM, 1.8 μM and 330 nM respectively, in a dilution buffer containing 100 mM Tris-HCl pH 8.0, 200 mM NaCl, 10% (v/v) glycerole, 2 mM glutathione (GSH), 0.5 mM EDTA and 0.1 mg/mL BSA. Protein dilutions and template DNA, comprising a pUC18 plasmid encoding the mitochondrial light strand promoter, restriction linearized proximal to the promoter 3′-end (pUC-LSP), were mixed at the twofold final assay-concentration in a reaction buffer, containing 10 mM Tris-HCl pH 7.5, 10 mM MgCl2, 40 mM NaCl, 2 mM GSH, 0.01% (w/v) Tween-20 and 0.1 mg/mL BSA.
# 5 μL of this mix were dispensed, depending on the chosen microtiter plate format, using multi-channel pipettes or a Multidrop® dispenser (Thermo Fisher Scientific, Waltham Mass.) into the wells of a microtiter plate and incubated at room temperature (rt) for 10 min. Chemical compounds under scrutiny in the assay were applied using contact-free acoustic droplet-dispensing (Echo520® Labcyte Inc., Sunnyvale Calif.) from 10 mM compound stocks in 100% DMSO, to a final concentration of 10 μM or in serial dilution series of the required concentration range. Equal amounts of DMSO without any compound were added to positive control samples, followed by an incubation step at rt for 10 min.
# The enzymatic reaction was started by the addition of 5 μL of a mix of dNTPs in reaction buffer to a final concentration of 500 μM each. No nucleotide mix was added to negative control samples. The content of the wells was mixed using a VarioTeleshaker™ (Thermo Fisher Scientific, Waltham Mass.) at 1500 rpm for 45 sec after which the microtiter plate was centrifuged at 500×g for 1 min. The samples were incubated for 2 h at rt with humidity control to avoid evaporation. The detection reagents were prepared in a buffer that was composed, such that the enzymatic reaction was terminated due to chelating of Mg-ions and increased ionic strength, containing 50 mM Tris-HCl pH 7.5, 700 mM NaCl, 20 mM EDTA, and 0.01% (w/v) Tween-20. Importantly Eu-cryptate-coupled streptavidin had to be preincubated with a 100-fold molar excess of a random sequence oligonucleotide for 10 min at rt in the dark to block unspecific binding of single stranded RNA to the protein. Subsequently, the blocked streptavidin(-Eu) was mixed with the DNA-probes on ice and kept away from light until use. […]
# mitochondrial RNA polymerase (POLRMT), sequence (Q8BKF1 42-1207): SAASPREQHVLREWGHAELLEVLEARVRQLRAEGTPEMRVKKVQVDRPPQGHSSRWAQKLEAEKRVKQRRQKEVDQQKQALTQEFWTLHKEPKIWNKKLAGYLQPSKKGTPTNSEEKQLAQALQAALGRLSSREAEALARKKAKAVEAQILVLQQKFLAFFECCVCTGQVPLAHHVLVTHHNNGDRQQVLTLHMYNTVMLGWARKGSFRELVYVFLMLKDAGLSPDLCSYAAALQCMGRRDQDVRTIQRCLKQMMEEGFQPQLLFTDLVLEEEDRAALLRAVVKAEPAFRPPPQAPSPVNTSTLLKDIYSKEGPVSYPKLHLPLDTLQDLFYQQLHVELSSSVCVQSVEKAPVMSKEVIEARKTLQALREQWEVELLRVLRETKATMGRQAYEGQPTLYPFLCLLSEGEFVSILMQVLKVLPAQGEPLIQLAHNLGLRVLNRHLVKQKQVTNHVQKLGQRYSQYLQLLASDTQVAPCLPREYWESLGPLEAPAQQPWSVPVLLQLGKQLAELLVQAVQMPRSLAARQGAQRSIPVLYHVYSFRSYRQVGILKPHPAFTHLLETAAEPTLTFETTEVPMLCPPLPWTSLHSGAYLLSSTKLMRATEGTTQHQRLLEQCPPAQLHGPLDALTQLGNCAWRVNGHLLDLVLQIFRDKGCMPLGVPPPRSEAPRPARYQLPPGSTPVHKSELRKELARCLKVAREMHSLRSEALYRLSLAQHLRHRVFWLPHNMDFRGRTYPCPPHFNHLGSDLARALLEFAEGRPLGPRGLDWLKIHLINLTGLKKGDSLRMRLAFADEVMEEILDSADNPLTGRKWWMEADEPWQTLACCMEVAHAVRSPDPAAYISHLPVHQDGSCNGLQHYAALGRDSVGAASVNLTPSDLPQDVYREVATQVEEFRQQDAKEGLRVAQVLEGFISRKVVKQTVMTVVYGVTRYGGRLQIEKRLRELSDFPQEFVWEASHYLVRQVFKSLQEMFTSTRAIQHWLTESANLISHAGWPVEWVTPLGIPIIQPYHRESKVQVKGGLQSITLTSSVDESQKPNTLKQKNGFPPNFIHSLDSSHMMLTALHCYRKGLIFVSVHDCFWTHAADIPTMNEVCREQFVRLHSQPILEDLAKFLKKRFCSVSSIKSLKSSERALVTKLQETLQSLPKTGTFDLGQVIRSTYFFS
row,IC50,Structure (SMILES)
1,1000 to 10000 nM,"CNC(=O)[C@H]1CCCN(C(=O)[C@@H](C)Oc2ccc3c(-c4ccc(F)cc4Cl)cc(Cl)nc3c2)C1 [Compound 105, (3S)-N-methyl-1-[(2R)-2-[[2-chloro-4-(2-chloro-4-fluoro-phenyl)-7-quinolyl]oxy]propanoyl]piperidine-3-carboxamide]"
2,1000 to 10000 nM,Cc1cc(-c2ccccc2C)c2ccc(O[C@H](C)C(=O)N3CCC[C@H](C(=O)OC(C)(C)C)C3)cc2n1 [Compound 111]
3,100 to 1000 nM,"Cc1ccccc1-c1cc(Cl)nc2cc(O[C@H](C)C(=O)O)ccc12 [Compound 43, (2R)-2-[[2-chloro-4-(o-tolyl)-7-quinolyl]oxy]propanoic acid]"
4,< 20 nM,"Cc1cc(F)cc(C)c1-c1ccnc2cc(O[C@H](C)C(=O)N3CCC[C@H](C(=O)O)C3)ccc12 [Compound 84, (3S)-1-[(2R)-2-[[4-(4-fluoro-2,6-dimethyl-phenyl)-7-quinolyl]oxy]propanoyl]piperidine-3-carboxylic acid]"
5,100 to 1000 nM,"CCOC(=O)c1ccc(NC(=O)[C@@H](C)Oc2ccc3c(-c4ccc(F)cc4Cl)ccnc3c2)cc1 [Compound 51, ethyl 4-[[(2R)-2-[[4-(2-chloro-4-fluoro-phenyl)-7-quinolyl]oxy]propanoyl]amino]benzoate]"
6,100 to 1000 nM,"CCC(=O)N1CCN(C(=O)[C@@H](C)Oc2ccc3c(-c4ccccc4Cl)cc(Cl)nc3c2)CC1 [Compound 72, (2R)-2-[[2-chloro-4-(2-chlorophenyl)-7-quinolyl]oxy]-1-(4-propanoylpiperazin-1-yl)propan-1-one]"
7,100 to 1000 nM,"C[C@@H](Oc1ccc2c(-c3ccccc3C#N)ccnc2c1)C(=O)N1CCC[C@H](CC(=O)O)C1 [Compound 143, 2-[(3R)-1-[(2R)-2-[[4-(2-cyanophenyl)-7-quinolyl]oxy]propanoyl]-3-piperidyl]acetic acid]"
8,100 to 1000 nM,"C[C@@H](Oc1ccc2c(-c3ccccc3C(F)(F)F)ccnc2c1)C(=O)N1CCC[C@H](CC(=O)O)C1 [Compound 136, 2-[(3R)-1-[(2R)-2-[[4-[2-(trifluoromethyl)phenyl]-7-quinolyl]oxy]propanoyl]-3-piperidyl]acetic acid]"
9,1000 to 10000 nM,"CC(C)OC(=O)COc1ccc2c(-c3ccccc3Cl)ccnc2c1 [Compound 82, isopropyl 2-[[4-(2-chlorophenyl)-7-quinolyl]oxy]acetate]"
10,1000 to 10000 nM,"C[C@H](Oc1ccc2c(-c3ccc(F)cc3Cl)ccnc2n1)C(=O)N1CCC[C@H](C(=O)O)C1 [Compound 127, (3S)-1-[(2S)-2-[[5-(2-chloro-4-fluoro-phenyl)-1,8-naphthyridin-2-yl]oxy]propanoyl]piperidine-3-carboxylic acid]"
11,100 to 1000 nM,"COC(=O)C[C@H]1CCN(C(=O)[C@@H](C)Oc2ccc3c(-c4ccc(F)cc4Cl)ccnc3c2)C1 [Compound 37, methyl 2-[(3R)-1-[(2R)-2-[[4-(2-chloro-4-fluoro-phenyl)-7-quinolyl]oxy]propanoyl]pyrrolidin-3-yl]acetate]"
12,100 to 1000 nM,"COC(=O)[C@@H]1CCCN(C(=O)[C@@H](C)Oc2ccc3c(-c4ccc(F)cc4Cl)ccnc3c2)C1 [Compound 71, methyl (3R)-1-[(2R)-2-[[4-(2-chloro-4-fluoro-phenyl)-7-quinolyl]oxy]propanoyl]piperidine-3-carboxylate]"
13,< 20 nM,"Cc1cccc(Cl)c1-c1ccnc2cc(O[C@H](C)C(=O)N3CCC[C@H](CC(=O)O)C3)ccc12 [Compound 141, 2-[(3R)-1-[(2R)-2-[[4-(2-chloro-6-methyl-phenyl)-7-quinolyl]oxy]propanoyl]-3-piperidyl]acetic acid]"
14,1000 to 10000 nM,"CNC(=O)[C@H]1CCCN(C(=O)[C@@H](C)Oc2ccc3c(-c4ccccc4Cl)cc(Cl)nc3c2)C1 [Compound 96, (3S)-1-[(2R)-2-[[2-chloro-4-(2-chlorophenyl)-7-quinolyl]oxy]propanoyl]-N-methyl-piperidine-3-carboxamide]"
15,1000 to 10000 nM,"COc1cccc(Cl)c1-c1ccnc2cc(O[C@H](C)C(=O)N3CCC[C@H](CC(=O)O)C3)ccc12 [Compound 152, 2-[(3R)-1-[(2R)-2-[[4-(2-chloro-6-methoxy-phenyl)-7-quinolyl]oxy]propanoyl]-3-piperidyl]acetic acid]"
16,1000 to 10000 nM,"C[C@@H](Oc1ccc2c(-c3ccc(F)cc3Cl)ccnc2c1)C(=O)Nc1ccc(CCO)cc1 [Compound 125, (2R)-2-[[4-(2-chloro-4-fluoro-phenyl)-7-quinolyl]oxy]-N-[4-(2-hydroxyethyl)phenyl]propanamide]"
17,< 20 nM,"C[C@@H](Oc1ccc2c(-c3ccccc3Br)ccnc2c1)C(=O)N1CCC[C@H](CC(=O)O)C1 [Compound 142, 2-[(3R)-1-[(2R)-2-[[4-(2-bromophenyl)-7-quinolyl]oxy]propanoyl]-3-piperidyl]acetic acid]"
18,1000 to 10000 nM,"CCOC(=O)C[C@H]1CCCN(C(=O)[C@@H](C)Oc2ccc3c(-c4ccc(F)cc4Cl)cc(Cl)nc3c2)C1 [Compound 93, ethyl 2-[(3R)-1-[(2R)-2-[[2-chloro-4-(2-chloro-4-fluoro-phenyl)-7-quinolyl]oxy]propanoyl]-3-piperidyl]acetate]"
19,< 20 nM,"Cc1cccc(C)c1-c1ccnc2cc(O[C@H](C)C(=O)N3CCC[C@@H](S(N)(=O)=O)C3)ccc12 [Compound 172, (3R)-1-[(2R)-2-[[4-(2,6-dimethylphenyl)-7-quinolyl]oxy]propanoyl]piperidine-3-sulfonamide]"
20,1000 to 10000 nM,"CNC(=O)C[C@H]1CCCN(C(=O)[C@@H](C)Oc2ccc3c(-c4ccc(F)cc4Cl)cc(Cl)nc3c2)C1 [Compound 98, 2-((R)-1-((R)-2-((2-chlor-4-(2-chloro-4-fluorophenyl)quinolin-7-yl)oxy)propanoyl)piperidin-3-yl)-N-methylacetamide]"
21,100 to 1000 nM,"CCOC(=O)C1CCN(C(=O)[C@@H](C)Oc2ccc3c(-c4ccc(F)cc4Cl)ccnc3c2)CC1 [Compound 58, ethyl 1-[(2R)-2-[[4-(2-chloro-4-fluoro-phenyl)-7-quinolyl]oxy]propanoyl]piperidine-4-carboxylate]"
22,20 to 100 nM,"C[C@@H](Oc1ccc2c(-c3cccc(F)c3Cl)ccnc2c1)C(=O)N1CCC[C@H](CC(=O)O)C1 [Compound 65, 2-[(3R)-1-[(2R)-2-[[4-(2-chloro-3-fluoro-phenyl)-7-quinolyl]oxy]propanoyl]-3-piperidyl]acetic acid]"
23,1000 to 10000 nM,"C[C@@H](Oc1ccc2c(-c3ccc(F)cc3Cl)ccnc2c1)C(=O)N1C[C@H]2C[C@@H]1CN2 [Compound 217, (2R)-2-[[4-(2-chloro-4-fluoro-phenyl)-7-quinolyl]oxy]-1-[(1R)-2,5-diazabicyclo[2.2.1]heptan-2-yl]propan-1-one]"
24,100 to 1000 nM,"COC(=O)C[C@@H]1CCN(C(=O)[C@@H](C)Oc2ccc3c(-c4ccc(F)cc4Cl)ccnc3c2)C1 [Compound 67, methyl 2-[(3S)-1-[(2R)-2-[[4-(2-chloro-4-fluoro-phenyl)-7-quinolyl]oxy]propanoyl]pyrrolidin-3-yl]acetate]"
25,1000 to 10000 nM,"C[C@@H](Oc1ccc2c(-c3ccccc3F)ccnc2c1)C(=O)N1CCC[C@H](CC(=O)O)C1 [Compound 110, 2-[(3R)-1-[(2R)-2-[[4-(2-fluorophenyl)-7-quinolyl]oxy]propanoyl]-3-piperidyl]acetic acid]"
26,1000 to 10000 nM,"C[C@@H](Oc1ccc2c(-c3ccccc3Cl)cc(Cl)nc2c1)C(=O)N1CCN(C(=O)CN)CC1 [Compound 85, (2R)-1-[4-(2-aminoacetyl)piperazin-1-yl]-2-[[2-chloro-4-(2-chlorophenyl)-7-quinolyl]oxy]propan-1-one]"
27,1000 to 10000 nM,"C[C@@H](Oc1ccc2c(-c3ccc(F)cc3Cl)ccnc2c1)C(=O)N1CC2(COC2)C1 [Compound 218, (2R)-2-[[4-(2-chloro-4-fluoro-phenyl)-7-quinolyl]oxy]-1-(2-oxa-6-azaspiro[3.3]heptan-6-yl)propan-1-one]"
